Source: paper PMC4019636, “Rational Design of Berberine-Based FtsZ Inhibitors with Broad-Spectrum Antibacterial Activity” (PLoS ONE, 2014)

How the values were obtained:
[1] = molecular target: T1, S. aureus FtsZ (Staphylococcus aureus, UniProt P0A031); test: Light scattering assay of FtsZ polymerization; type: biochemical; conditions: for inhibition of polymerization in the presence of Triton X-100: 0.01% Triton X-100, berberine 200 and 500 µM, compound 2 10 and 25 µM
T1 construct: made in house; host or cells: E. coli BL21(DE3)
T1 sequence (P0A031 1-390): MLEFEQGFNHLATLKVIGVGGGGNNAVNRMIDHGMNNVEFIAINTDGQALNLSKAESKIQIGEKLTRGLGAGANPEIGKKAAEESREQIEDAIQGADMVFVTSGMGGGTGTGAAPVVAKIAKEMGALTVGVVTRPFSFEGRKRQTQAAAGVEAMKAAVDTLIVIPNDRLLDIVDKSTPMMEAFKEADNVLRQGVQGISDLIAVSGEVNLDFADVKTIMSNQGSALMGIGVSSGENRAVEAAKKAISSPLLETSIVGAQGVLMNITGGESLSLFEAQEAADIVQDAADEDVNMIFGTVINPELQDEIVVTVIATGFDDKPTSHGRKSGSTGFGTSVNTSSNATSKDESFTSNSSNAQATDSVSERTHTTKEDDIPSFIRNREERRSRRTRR
Experimental: (§1) E. coli BL21(DE3) cells were transformed with the pRSET-A-S vector carrying S. aureus FtsZ with a 6-histidine tag attached at its N-terminus under the control of a T7 promoter. […] When the OD600 reached 0.8, protein expression was induced with 0.4 mM isopropyl-β-D-thiogalactopyranoside (IPTG) for 4 h. Cells were harvested by centrifugation at 9000 rpm for 20 min at 4°C. The cell pellet was resuspended in 20 mL of solubilization buffer (50 mM Tris-HCl, 150 mM NaCl, 1 mM PMSF and 1 mM EDTA, pH 7.4) and then lysed with 1 mg/mL of lysozyme. The mixture was incubated for 1 h on ice. The cells were disrupted by sonication and the crude lysate obtained was centrifuged at 13,000 rpm for 1 h at 4°C. The supernatant containing 6-histidine tagged S. aureus FtsZ was collected and loaded onto a nickel charged HiTrap chelating column pre-equilibrated with starting buffer (20 mM sodium phosphate buffer, 0.5 M NaCl, pH 7.4). The column was then washed with 8 column volumes of the starting buffer to remove the unbound proteins, and the histidine-tagged enzyme was eluted by a linear gradient of 0−0.2 M imidazole. Fractions containing S. aureus FtsZ were pooled, buffer-exchanged with 20 mM NH4HCO3 (pH 8.0) at 4°C, lyophilized, and stored at −20°C. A stock solution of S. aureus FtsZ for the subsequent bioassay was prepared from the lyophilized powder.
The light scattering assay was performed using a protocol adapted from the literature. The polymerization and depolymerization of recombinant S. aureus FtsZ was measured using 90° light scattering in a thermostatically (37°C) controlled fluorescence spectrometer (Perkin Elmer, USA). Both excitation and emission wavelengths were set to 600 nm with a slit width of 2.5 nm. S. aureus FtsZ (6 µM) in 50 mM of MOPS buffer (pH 6.5) was incubated with vehicle (1% DMSO) or different concentrations of the test compound for 10 min at 25°C. 50 mM KCl and 10 mM MgCl2 were then added to establish a baseline. After 8 min, a final concentration of 1 mM GTP was added at the last fraction and the increase in light scattering was measured for an additional 2000s. The rate and extent of polymerization were measured. Appropriate blanks were subtracted from all experimental data. Moreover, in order to rule out unselective inhibition by formation of aggregates, control experiments with 0.01% (v/v) Triton X-100 from a freshly prepared 1% (v/v) stock solution were performed for berberine and compound 2 [40], [41]. Reported results are the average of three independent experiments.

[2] = tested on: Gram-positive bacteria, including methicillin-resistant S. aureus and vancomycin-resistant E. faecium; test: Antimicrobial susceptibility assay, summary over Gram-positive bacteria; type: cell-based; conditions: Staphylococcus aureus; Gram-positive bacteria incl. MRSA and VREF
From the text: The bacterial strains S. aureus ATCC 29213, S. aureus ATCC 29247, S. aureus ATCC BAA-41, E. faecium ATCC 49624, E. faecium ATCC 700221, E. faecalis ATCC 29212, S. epidermidis ATCC 12228, E. coli ATCC 25922, and K. pneumoniae ATCC BAA-1144 used in the antimicrobial susceptibility assays were purchased from American Type Culture Collection (ATCC, USA). B. subtilis strain 168 was already available in our in-house collection. E. coli JM109 WM647 was kindly provided by Dr. W. Margolin (University of Texas-Houston Medical School). FM 4–64 was purchased from Invitrogen (Eugene, Oregon). All other chemicals and reagents were purchased from Sigma-Aldrich. Stock solutions were prepared in DMSO. The final percentage of DMSO in the assays was 1% (v/v) for all experiments.
Antimicrobial susceptibility tests were conducted in 96-well microplates using the broth microdilution procedure described in the Clinical and Laboratory Standards Institute (CLSI) guidelines. […] After incubation for 18 h at 37°C, the absorbance at 600 nm (A600) was recorded using a microplate reader (Bio-Rad laboratory Ltd., UK) and the percentage of bacterial cell inhibition with respect to vehicles (1% DMSO) was calculated. […]

[3] = molecular target: T1, S. aureus FtsZ; test: Transmission electron microscopy of FtsZ polymers; type: biochemical; conditions: FtsZ 12 µM, TEM
Experimental: as §1, with “powder. […]” for “powder.”

[4] = tested on: GFP-tagged FtsZ in E. coli JM109 WM647; test: Z-ring visualization in E. coli cells; type: cell-based; conditions: 48 µM compound, 4 h at 37°C
Experimental: A culture of E. coli JM109 WM647 containing the IPTG-inducible plasmid for the overexpression of green fluorescence protein (GFP)-tagged FtsZ was grown in LB medium supplemented with 30 µg/mL of chloramphenicol. After overnight incubation, a sample of the culture was diluted to 1% in the LB medium containing different concentrations of the test compound and 40 µM of IPTG. After 4 h incubation at 37°C, the E. coli cells were fixed, harvested and resuspended in PBS buffer containing 0.25% of agarose. 10 µL of sample mixture were added to a pretreated microscopic slide with 0.1% (w/v) poly-L-lysine and visualized using a fluorescence microscope at 60× oil immersion magnification with a standard FITC filter set. The images were captured using an Olympus Bio Imaging Navigator FSX 100 microscope.

| Compound | inhibition at 200 µM ([1]; 200 µM compound, FtsZ 6 µM, 1 mM GTP, light scattering) [%] | inhibition of polymerization in the presence of Triton X-100 [1] | MIC [2] [µg/mL] | reduction of the thickness of the bundles of FtsZ protofilaments ([3]; 4 µM compound) [%] | inhibition of S. aureus FtsZ polymerization at increasing concentrations ([1]; 10 µM, 25 µM and 50 µM compound) | inhibition at 50 µM ([1]; 50 µM compound, FtsZ 6 µM, 1 mM GTP, light scattering) [%] | Z-ring formation / localization of GFP-tagged FtsZ [4] | reduction of the thickness of the bundles of FtsZ protofilaments ([3]; 8.8 µM compound) [%] |
| --- | --- | --- | --- | --- | --- | --- | --- | --- |
| COc1ccc2cc3[n+](cc2c1OC)CCc1cc2c(cc1-3)OCO2 [Berberine, Berberine chloride] | ~30 | maintained |  |  |  |  |  |  |
| COc1ccc2cc3[n+](cc2c1OCCCOc1ccc(Cl)cc1)CCc1cc2c(cc1-3)OCO2 [Compound 2] |  | maintained | 2 to 4 | 70 | strongly inhibited the S. aureus FtsZ polymerization in a dose-dependent manner | ~70 | caused mislocalization of the FtsZ protein |  |
| COc1ccc2cc3[n+](cc2c1OCCCOc1ccccc1)CCc1cc2c(cc1-3)OCO2 [Compound 1] |  |  |  |  |  |  |  | 60 |
